Measurements: patent EP0604352B1, “Aryl-substituted heterocyclic compounds” (N[…]/S, priority 1992, dated 1994)

Tests used:
[1] = system: excitatory locomotor and rearing responses; experiment: behavioural excitatory locomotor and rearing responses (side effect profile); format: in vivo, rat; conditions: for Activity: locomotor and rearing, maximum peak effect, rats
Experimental: Male SPF wistar rats weighing 200-250g were used for the gross behavioural studies. All rats were transferred the day before the experiments to individual cages made of wire netting (floor area 21 x 27 cm, height 16 cm) at a room temperature of 21-23° C. […] The behavioural elements here classified as rearing (i.e. standing up on the hindlegs) and locomotor activities (i.e. forward running activities) were registered, and the maximum peak effects were classified according to the following rating scale: • 0 = non-existent or very infrequent • + = weak and infrequent • ++ = moderate in intensity and frequency • +++ = very strong, continuous and intense
The degree of locomotor activity was also tested and measured quantitatively in photocell activity cages. For the measurement of this locomotor activity 100 g female rats are used.

[2] = system: haloperidol-induced catalepsy; experiment: catalepsy test for antiparkinsonian effects (antagonism of haloperidol-induced catalepsy); format: in vivo; conditions: Rattus norvegicus; rats, test substance perorally 1 h before haloperidol 0.25 mg/kg subcutaneously; read-out: Minimum effective dose (peroral administration)
Text: The principle behind the haloperidol catalepsy test relates to the fact that the drug haloperidol (Serenase®) induces a receptor blockade of post synaptic dopamine receptors within the dopamine innervated corpus striatum of the rat brain. Following the blockade of active dopamine neurotransmission of the striatum a state of rigid immobility is induced, during which the rat can be placed in various totally abnormal immobile postures involving the forelegs and the whole body. […] The immobile posture effect induced by haloperidol closely resembles the state of Parkinson's disease in humans, which is due to a deficit of the dopaminergic innervation of the striatal complex (nucleus caudatus, putamen).
The day before testing, the rats weighing 200-250 g are housed 2 and 2 together in standard macrolon cages. […] The testing for the immobile catalepsy syndrome includes 4 tests performed in the following consecutive order: • 1) a vertical wire netting (40x40 cm high).The meshes (openings) of the nettings are approximately 1×2cm. • 2) a horizontal bar 9 cm above the floor • 3) a 9 cm high block (bar) • 4) a 3 cm high block (cork)
The rats were scored for the immobile cataleptic syndrome every 15 min in all 4 tests starting 15 min after the haloperidol injection. The intensity of catalepsy was tested during 10 sec in all tests and evaluated according to a criteria of 10 sec of total immobility for a score of 2.
The rat was placed in the middle of the vertical wire netting, then on the horizontal bar in an extended position with support by both the forelegs on the bar. The rats were then tested, whether or not they were willing to sit with the left or right forelegs placed first on the 9 and then on the 3 cm block for a duration of 10 sec. The maximum score for all 4 tests is thus a total of 8.

[3] = system: abnormal stereotyped behaviour; experiment: abnormal stereotyped behaviour, high intensity stereotypy (side effect profile); format: in vivo, rat; conditions: rats
Text: Backward locomotion may occasionally be observed.

[4] = target: T1, reuptake of dopamine in synaptosomes of rat forebrain (Rattus norvegicus, UniProt P23977); experiment: inhibition of reuptake of dopamine (3H-dopamine) in synaptosomes; format: biochemical
T1 construct: from tissue; host or cells: whole forebrain of male Wistar rats (crude synaptosomal supernatant)
Experimental: Fresh whole forebrain (at 0-4°C) from male Wistar rats (150-200 g) is homogenized in a glass homogenizer with a Teflon pestle in 20 x volumes 0.32M sucrose. The homogenate is centrifuged at 1000 x g (∼ 2900 rpm) for 10 min. The pellet is discarded and the supernatant is used for uptake assays. […] The samples are thoroughly mixed and incubated 10 min at 37°C followed by 2 min at 0°C. After incubation the samples are poured directly onto Whatman GF/C glass fibre filters under suction and immediately washed with 2 x 5 ml ice-cold 0.9% saline (NaCI) buffer. To the filter is added 3 ml of scintillation fluid, and the amount of radioactivity on the filters is determined by conventional liquid scintillation counting.

[5] = system: dopamine releasing properties; experiment: dopamine releasing properties

T1 sequence (P23977 whole entry): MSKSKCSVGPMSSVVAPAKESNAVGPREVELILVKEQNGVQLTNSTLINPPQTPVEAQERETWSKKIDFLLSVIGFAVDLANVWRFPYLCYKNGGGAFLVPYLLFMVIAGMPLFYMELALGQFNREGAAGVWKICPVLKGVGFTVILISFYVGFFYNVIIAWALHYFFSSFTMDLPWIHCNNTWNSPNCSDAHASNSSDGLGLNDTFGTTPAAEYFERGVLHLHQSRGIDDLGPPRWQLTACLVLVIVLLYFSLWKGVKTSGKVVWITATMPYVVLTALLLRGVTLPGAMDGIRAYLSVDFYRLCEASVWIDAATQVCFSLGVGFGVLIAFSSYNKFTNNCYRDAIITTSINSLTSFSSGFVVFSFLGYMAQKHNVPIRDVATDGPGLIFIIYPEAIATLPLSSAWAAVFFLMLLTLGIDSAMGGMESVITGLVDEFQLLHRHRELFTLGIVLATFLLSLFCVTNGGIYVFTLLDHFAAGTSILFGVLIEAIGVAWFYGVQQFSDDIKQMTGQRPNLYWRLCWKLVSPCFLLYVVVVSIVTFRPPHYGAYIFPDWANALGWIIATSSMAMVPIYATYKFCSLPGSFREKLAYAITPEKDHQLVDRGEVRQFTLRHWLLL

SMILES | Activity ([1]; 10 mg/kg i.p.) | minimal effective dose [2] | Activity ([3]; 50 mg/kg i.p.) | IC50 [4] | Activity ([1]; 50 mg/kg i.p.) | Activity ([1]; 100 mg/kg i.p.) | Activity ([3]; 25 mg/kg i.p.) | Activity ([3]; 100 mg/kg p.o.) | dopamine releasing properties [5] | side effects as measured by excitatory locomotor activity and rearing responses as well as by abnormal stereotyped behaviour ([1]; at every relevant dosing level tested)
CN1[C@H]2CC[C@@H]1[C@H](c1nc(-c3ccccn3)no1)[C@@H](c1ccc(Cl)c(Cl)c1)C2 [(1R,2R,3S)-2-(3-(2-Pyridyl)-1,2,4-oxadiazol-5-yl)-3-(3,4-dichlorophenyl)-tropane] | 0 | > 1 mg/kg | + | 115 nM |  |  |  |  |  | 
CN1[C@H]2CC[C@@H]1[C@H](c1nc(-c3cccs3)no1)[C@@H](c1ccc(Cl)c(Cl)c1)C2 [(1R,2R,3S)-2-(3-(2-Thienyl)-1,2,4-oxadiazol-5-yl)-3-(3,4-dichlorophenyl)-tropane] |  | > 1 mg/kg | 0 | 200 nM | 0 |  |  |  |  | 
CN1[C@H]2CC[C@@H]1[C@H](c1nc(-c3ccncc3)no1)[C@@H](c1ccc(Cl)c(Cl)c1)C2 [(1R,2R,3S)-2-(3-(4-Pyridyl)-1,2,4-oxadiazol-5-yl)-3-(3,4-dichlorophenyl)-tropane] | 0 | 0.25 mg/kg |  | 69 nM |  | ++ | ++ | + |  | 
COC(=O)[C@@H]1[C@@H](c2ccc(F)cc2)C[C@@H]2CC[C@H]1N2C [trans isomer of Win 35,428, (1R,2R,3S)-2-carbomethoxy-3-(4-fluorophenyl)tropane, reference compound] |  |  |  |  |  |  |  |  | essentially free of dopamine releasing properties | essentially or totally devoid of side effects
